US10770169B2, “Method of providing a treatment to a subject based on a dynamic pathway map” (THE REGENTS OF THE UNIVERSITY OF CALIFORNIA, priority 2010, dated 2020)

Tested on: panel of 55 breast cancer cell lines
Assay: Cell growth inhibition assay (Cell Titer Glo, 72 h, 9 doses; GI50, TGI, LC50)
Type: cell-based, human
Conditions: value is the negative log10 of mol/L
[1] = BT20 cell line, censored GI50 values
[2] = BT483 cell line, censored GI50 values
[3] = HCC1187 cell line, censored GI50 values
[4] = HCC2185 cell line, censored GI50 values
[5] = SUM52PE cell line, censored GI50 values
[6] = SUM149PT cell line, censored GI50 values
[7] = SUM185PE cell line, censored GI50 values
[8] = ZR751 cell line, censored GI50 values

`CC(C)[C@H](CO)Nc1nc(Nc2cccc(Cl)c2)c2ncn(C(C)C)c2n1` [Purvalanol A] gave a GI50 (600MPE cell line, censored GI50 values) of 4.52, a GI50 (AU565 cell line, censored GI50 values) of 5.01 and a GI50 [1] of 4.56. It also gave a GI50 [2] of 4.40, a GI50 (HCC202 cell line, censored GI50 values) of 3.99 and a GI50 [3] of 4.74. The GI50 (HCC1428 cell line, censored GI50 values) was 4.44, the GI50 (HCC1806 cell line, censored GI50 values) was 4.00 and the GI50 (HCC1937 cell line, censored GI50 values) was 4.97. For the same molecule, the GI50 (HCC1954 cell line, censored GI50 values) was 4.43, the GI50 [4] was 4.57 and the GI50 (MCF7 cell line, censored GI50 values) was 4.80. For the same molecule, the GI50 (MDAMB134VI cell line, censored GI50 values) was 4.26, the GI50 (MDAMB175VII cell line, censored GI50 values) was 4.46 and the GI50 (MDAMB468 cell line, censored GI50 values) was 4.12. The GI50 (SKBR3 cell line, censored GI50 values) was 4.60, the GI50 [5] was 4.79 and the GI50 [6] was 4.88. For the same molecule, the GI50 [7] was 4.69, the GI50 (SUM225CWN cell line, censored GI50 values) was 4.28 and the GI50 (SUM1315MO2 cell line, censored GI50 values) was 5.09. It also gave a GI50 [8] of 4.01, a GI50 (cell line 600MPE) of 4.52 and a GI50 (cell line AU565) of 5.01. For the same molecule, the GI50 (cell line BT20) was 4.56, the GI50 (cell line BT474) was 3.78 and the GI50 (cell line BT483) was 4.40. The GI50 (cell line BT549) was 3.78, the GI50 (cell line CAMA1) was 3.86 and the GI50 (cell line HCC70) was 3.78. For the same molecule, the GI50 (cell line HCC202) was 3.99, the GI50 (cell line HCC1143) was 3.78 and the GI50 (cell line HCC1187) was 4.74. It also gave a GI50 (cell line HCC1395) of 3.78, a GI50 (cell line HCC1419) of 3.78 and a GI50 (cell line HCC1428) of 4.44. The GI50 (cell line HCC1500) was 3.95, the GI50 (cell line HCC1806) was 4.00 and the GI50 (cell line HCC1937) was 4.97. The GI50 (cell line HCC1954) was 4.43, the GI50 (cell line HCC2185) was 4.57 and the GI50 (cell line HCC3153) was 3.83. The GI50 (cell line MCF7) was 4.80, the GI50 (cell line MDAMB134V) was 4.26 and the GI50 (cell line MDAMB157) was 3.78. The GI50 (cell line MDAMB175V) was 4.46, the GI50 (cell line MDAMB231) was 3.78 and the GI50 (cell line MDAMB361) was 3.78. For the same molecule, the GI50 (cell line MDAMB436) was 3.78, the GI50 (cell line MDAMB468) was 4.12 and the GI50 (cell line SKBR3) was 4.60. The GI50 (cell line SUM52PE) was 4.79, the GI50 (cell line SUM149PT) was 4.88 and the GI50 (cell line SUM159PT) was 3.78. For the same molecule, the GI50 (cell line SUM185PE) was 4.69, the GI50 (cell line SUM225CWN) was 4.28 and the GI50 (cell line SUM1315MO) was 5.09. It also gave a GI50 (cell line T47D) of 3.78, a GI50 (cell line UACC893) of 3.78 and a GI50 (cell line ZR75B) of 3.78. It also gave a GI50 (cell line ZR751) of 4.01.
Work on `O=S(=O)(CC1CS1)c1ccc(Oc2ccccc2)cc1` (centres unmarked) [SB-3CT] yielded a GI50 [1] of 4.42, a GI50 (BT474 cell line, censored GI50 values) of 4.99 and a GI50 [2] of 4.59. For the same molecule, the GI50 (HCC38 cell line, censored GI50 values) was 4.62, the GI50 [3] was 4.83 and the GI50 [4] was 4.21. It also gave a GI50 (MDAMB361 cell line, censored GI50 values) of 4.00, a GI50 (MDAMB415 cell line, censored GI50 values) of 4.00 and a GI50 [5] of 4.22. It also gave a GI50 [6] of 4.53, a GI50 (SUM159PT cell line, censored GI50 values) of 4.85 and a GI50 [7] of 4.76. For the same molecule, the GI50 (UACC812 cell line, censored GI50 values) was 4.28, the GI50 (ZR75B cell line, censored GI50 values) was 4.62 and the GI50 [8] was 4.00. For the same molecule, the GI50 (cell line AU565) was 4.00, the GI50 (cell line BT20) was 4.42 and the GI50 (cell line BT474) was 4.99. The GI50 (cell line BT483) was 4.59, the GI50 (cell line CAMA1) was 4.00 and the GI50 (cell line HCC38) was 4.62. For the same molecule, the GI50 (cell line HCC70) was 3.88, the GI50 (cell line HCC1143) was 4.00 and the GI50 (cell line HCC1187) was 4.83. The GI50 (cell line HCC1395) was 3.78, the GI50 (cell line HCC1419) was 3.78 and the GI50 (cell line HCC1428) was 4.18. It also gave a GI50 (cell line HCC1500) of 3.78, a GI50 (cell line HCC1806) of 4.00 and a GI50 (cell line HCC1937) of 4.00. It also gave a GI50 (cell line HCC1954) of 4.00, a GI50 (cell line HCC2185) of 4.21 and a GI50 (cell line HCC3153) of 4.00. For the same molecule, the GI50 (cell line MCF7) was 4.00.
